pIC50: −log10 of the molar value.
These compounds were tested against T1, human kinase Mps-1 (Homo sapiens (Human), UniProt P33981) (assay: not given). Details: read-out: Mps-1 IC50; N-terminally GST-tagged human full length recombinant Mps-1; 10 μM ATP; 1 μM biotinylated peptide substrate; 60 min at 22° C.
T1 sequence (P33981 whole entry): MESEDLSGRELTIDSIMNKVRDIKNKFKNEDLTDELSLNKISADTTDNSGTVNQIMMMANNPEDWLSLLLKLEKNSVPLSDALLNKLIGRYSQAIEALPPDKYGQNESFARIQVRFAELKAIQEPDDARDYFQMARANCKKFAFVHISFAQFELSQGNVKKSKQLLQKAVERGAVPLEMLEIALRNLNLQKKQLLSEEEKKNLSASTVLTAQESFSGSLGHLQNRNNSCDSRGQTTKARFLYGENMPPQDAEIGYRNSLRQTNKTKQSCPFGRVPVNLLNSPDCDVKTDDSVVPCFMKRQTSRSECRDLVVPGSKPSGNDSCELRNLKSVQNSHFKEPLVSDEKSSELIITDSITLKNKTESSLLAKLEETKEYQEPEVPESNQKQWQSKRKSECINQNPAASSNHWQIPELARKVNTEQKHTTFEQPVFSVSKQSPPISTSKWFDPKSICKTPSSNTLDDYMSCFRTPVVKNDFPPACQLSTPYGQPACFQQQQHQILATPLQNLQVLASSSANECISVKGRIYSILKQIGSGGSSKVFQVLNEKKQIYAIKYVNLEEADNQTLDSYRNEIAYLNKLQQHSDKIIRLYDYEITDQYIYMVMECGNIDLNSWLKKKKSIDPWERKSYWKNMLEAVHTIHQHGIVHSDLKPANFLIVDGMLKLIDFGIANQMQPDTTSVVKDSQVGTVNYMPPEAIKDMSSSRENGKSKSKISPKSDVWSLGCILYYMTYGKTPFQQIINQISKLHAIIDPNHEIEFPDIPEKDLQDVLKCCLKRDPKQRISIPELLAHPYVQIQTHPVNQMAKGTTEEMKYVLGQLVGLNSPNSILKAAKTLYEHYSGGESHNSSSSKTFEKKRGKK

SMILES | pIC50
Cc1cc(-c2cnc3c(NCCC(F)(F)F)nc(C#CCN4CCS(=O)(=O)CC4)cn23)ccc1C(=O)NC1CC1 [Example 62, N-cyclopropyl-4-{6-[3-(1,1-dioxidothiomorpholin-4-yl)prop-1-yn-1-yl]-8-[(3,3,3-trifluoropropyl)amino]imidazo[1,2-a]pyrazin-3-yl}-2-methylbenzamide] | 8.38
C#Cc1cn2c(-c3ccc(C(=O)NC)c(C)c3)cnc2c(NCCC(F)(F)F)n1 [Example 63, 4-{6-Ethynyl-8-[(3,3,3-trifluoropropyl)amino]imidazo[1,2-a]pyrazin-3-yl}-N,2-dimethylbenzamide] | 6.87
C#Cc1cn2c(-c3ccc(C(=O)NCC)c(C)c3)cnc2c(NCCC(F)(F)F)n1 [Example 64, N-ethyl-4-{6-ethynyl-8-[(3,3,3-trifluoropropyl)amino]imidazo[1,2-a]pyrazin-3-yl}-2-methylbenzamide] | 6.92
C#Cc1cn2c(-c3ccc(C(=O)NCC(F)F)c(C)c3)cnc2c(NCCC(F)(F)F)n1 [Example 65, N-(2,2-difluoroethyl)-4-{6-ethynyl-8-[(3,3,3-trifluoropropyl)amino]imidazo[1,2-a]pyrazin-3-yl}-2-methylbenzamide] | 6.67
C#Cc1cn2c(-c3ccc(C(=O)NC4(C)CC4)c(C)c3)cnc2c(NCCC(F)(F)F)n1 [Example 66, 4-{6-ethynyl-8-[(3,3,3-trifluoropropyl)amino]imidazo[1,2-a]pyrazin-3-yl}-2-methyl-N-(1-methylcyclopropyl)benzamide] | 6.81
C#Cc1cn2c(-c3ccc(C(=O)NC4(C#N)CC4)c(C)c3)cnc2c(NCCC(F)(F)F)n1 [Example 67, N-(1-cyanocyclopropyl)-4-{6-ethynyl-8-[(3,3,3-trifluoropropyl)amino]imidazo[1,2-a]pyrazin-3-yl}-2-methylbenzamide] | 6.78
C#Cc1cn2c(-c3ccc(C(=O)NC4(OC)CC4)c(C)c3)cnc2c(NCCC(F)(F)F)n1 [Example 68, 4-{6-ethynyl-8-[(3,3,3-trifluoropropyl)amino]imidazo[1,2-a]pyrazin-3-yl}-N-(1-methoxycyclopropyl)-2-methylbenzamide] | 6.52
CCNC(=O)c1ccc(-c2cnc3c(NCCC(F)(F)F)nc(C#CCO)cn23)cc1C [Example 71, N-ethyl-4-{6-(3-hydroxyprop-1-yn-1-yl)-8-[(3,3,3-trifluoropropyl)amino]imidazo[1,2-a]pyrazin-3-yl}-2-methylbenzamide] | 6.82
Cc1cc(-c2cnc3c(NCCC(F)(F)F)nc(C#CCO)cn23)ccc1C(=O)NCC(F)F [Example 72, N-(2,2-difluoroethyl)-4-{6-(3-hydroxyprop-1-yn-1-yl)-8-[(3,3,3-trifluoropropyl)amino]imidazo[1,2-a]pyrazin-3-yl}-2-methylbenzamide] | 6.89
Cc1cc(-c2cnc3c(NCCC(F)(F)F)nc(C#CCO)cn23)ccc1C(=O)NC1(C#N)CC1 [Example 74, N-(1-cyanocyclopropyl)-4-{6-(3-hydroxyprop-1-yn-1-yl)-8-[(3,3,3-trifluoropropyl)amino]imidazo[1,2-a]pyrazin-3-yl}-2-methylbenzamide] | 7.01

Further lines, results first:

pIC50 | SMILES
8.08 | CC(C)CNc1nc(C#CCO)cn2c(-c3ccc(-c4cnc(C5CC5)[nH]4)cc3)cnc12 [Example 54, 3-{3-[4-(2-Cyclopropyl-1H-imidazol-5-yl)phenyl]-8-(isobutylamino)imidazo[1,2-a]pyrazin-6-yl}prop-2-yn-1-ol]
6.28 | CC(C)CNc1nc(C#CCO)cn2c(-c3cccc(-c4cnc(C5CC5)[nH]4)c3)cnc12 [Example 55, 3-{3-[3-(2-Cyclopropyl-1H-imidazol-5-yl)phenyl]-8-(isobutylamino)imidazo[1,2-a]pyrazin-6-yl}prop-2-yn-1-ol]
7.64 | OCC#Cc1cn2c(-c3ccc(-c4cnc(C5CC5)[nH]4)cc3)cnc2c(NCCCCO)n1 [Example 56, 4-({3-[4-(2-Cyclopropyl-1H-imidazol-5-yl)phenyl]-6-(3-hydroxyprop-1-yn-1-yl)imidazo[1,2-a]pyrazin-8-yl}amino)butan-1-ol]
8.15 | OCC#Cc1cn2c(-c3ccc(-c4cnc(C5CC5)[nH]4)cc3)cnc2c(NCCC(F)(F)F)n1 [Example 57, 3-{3-[4-(2-Cyclopropyl-1H-imidazol-5-yl)phenyl]-8-[(3,3,3-trifluoropropyl)amino]imidazo[1,2-a]pyrazin-6-yl}prop-2-yn-1-ol]
8.28 | OCC#Cc1cn2c(-c3ccc(-c4cnc(C5CC5)[nH]4)cc3)cnc2c(NCC2CCC2)n1 [Example 58, 3-{8-[(Cyclobutylmethyl)amino]-3-[4-(2-cyclopropyl-1H-imidazol-5-yl)phenyl]imidazo[1,2-a]pyrazin-6-yl}prop-2-yn-1-ol]
7.28 | OCC#Cc1cn2c(-c3ccc(-c4cnc(C5CC5)[nH]4)cc3)cnc2c(NCCCO)n1 [Example 59, 3-{3-[4-(2-Cyclopropyl-1H-imidazol-5-yl)phenyl]-8-[(3-hydroxypropyl)amino]imidazo[1,2-a]pyrazin-6-yl}prop-2-yn-1-ol]
8.17 | O=S1(=O)CCN(CC#Cc2cn3c(-c4ccc(-c5cnc(C6CC6)[nH]5)cc4)cnc3c(NCCC(F)(F)F)n2)CC1 [Example 61, 3-[4-(2-cyclopropyl-1H-imidazol-5-yl)phenyl]-6-[3-(1,1-dioxidothiomorpholin-4-yl)prop-1-yn-1-yl]-N-(3,3,3-trifluoropropyl)imidazo[1,2-a]pyrazin-8-amine]
7.16 | CNC(=O)c1ccc(-c2cnc3c(NCCC(F)(F)F)nc(C#CCO)cn23)cc1C [Example 70, 4-{6-(3-Hydroxyprop-1-yn-1-yl)-8-[(3,3,3-trifluoropropyl)amino]imidazo[1,2-a]pyrazin-3-yl}-N,2-dimethylbenzamide]
6.92 | Cc1cc(-c2cnc3c(NCCC(F)(F)F)nc(C#CCO)cn23)ccc1C(=O)NC1(C)CC1 [Example 73, 4-{6-(3-hydroxyprop-1-yn-1-yl)-8-[(3,3,3-trifluoropropyl)amino]imidazo[1,2-a]pyrazin-3-yl}-2-methyl-N-(1-methylcyclopropyl)benzamide]
6.51 | COC1(NC(=O)c2ccc(-c3cnc4c(NCCC(F)(F)F)nc(C#CCO)cn34)cc2C)CC1 [Example 75, 4-{6-(3-hydroxyprop-1-yn-1-yl)-8-[(3,3,3-trifluoropropyl)amino]imidazo[1,2-a]pyrazin-3-yl}-N-(1-methoxycyclopropyl)-2-methylbenzamide]

Each compound was assayed against T1, human kinase Mps-1 (assay: biochemical). Details: not given.

pIC50 | SMILES
7.37 | Cc1cc(-c2cnc3c(NCCC(F)(F)F)nc(C#CCO)cn23)ccc1C(=O)NC1C[C@@H]1F (stereo in doubt) [Example 76, N-[rel(1S,2S)-2-fluorocyclopropyl]-4-{6-(3-hydroxyprop-1-yn-1-yl)-8-[(3,3,3-trifluoropropyl)amino]imidazo[1,2-a]pyrazin-3-yl}-2-methylbenzamide]
6.64 | NCCCNc1nc(C#CCO)cn2c(-c3ccc(-c4cnc(C5CC5)[nH]4)cc3)cnc12 [Example 60, 3-{8-[(3-Aminopropyl)amino]-3-[4-(2-cyclopropyl-1H-imidazol-5-yl)phenyl]imidazo[1,2-a]pyrazin-6-yl}prop-2-yn-1-ol]

— patent publication US9199999B2, “Substituted imidazopyrazines” (Bayer Intellectual Property GmbH, priority 2010, dated 2015)
